Holding throughout (test): Post-emergence efficacy of compounds of Formula (I) (B1), glasshouse
What all share (assay type): in vivo

One assay has as its system Lolium perenne (LOLPE). Conditions: Application Rate 500 g/Ha, evaluated after 13 days; for pest or weed control at 500 g/ha: Lolium perenne, post-emergence, 312 h, read-out: Control of LOLPE after post-emergence application (100=total damage to plant; 0=no damage to plant). The protocol:
(§1) Seeds of a variety of test species were sown in standard Iaom-based soil in pots:— Ipomoea hederacea (IPOHE), Euphorbia heterophylla (EPHHL), Chenopodium album (CHEAL), Amaranthus palmeri (AMAPA), Lolium perenne (LOLPE), Digitaria sanguinalis (DIGSA), Eleusine indica (ELEIN), Echinochloa crus-galli (ECHCG), Setaria faberi (SETFA). After cultivation for 14 days (post-emergence) under controlled conditions in a glasshouse (at 24/16° C., day/night; 14 hours light; 65% humidity), the plants were sprayed with an aqueous spray solution derived from the dissolution of the technical active ingredient Formula (I) in a small amount of acetone and a special solvent and emulsifier mixture referred to as IF50 (11.12% Emulsogen EL360 TM+44.44% N-methylpyrrolidone+44.44% Dowanol DPM glycol ether), to create a 50 g/I solution which was then diluted to required concentration using 0.25% or 1% Empicol ESC70 (Sodium lauryl ether sulphate)+1% ammonium sulphate as diluent. The delivery of the aqueous spray solution was via a laboratory track sprayer which delivered the aqueous spray composition at a rate of 200 litres per hectare, using a flat fan nozzle (Teejet 11002VS) and an application volume of 200 litre/ha (at 2 bar).
(§2) The test plants were then grown in a glasshouse under controlled conditions (at 24/16° C., day/night; 14 hours light; 65% humidity) and watered twice daily. After 13 days the test was evaluated (100=total damage to plant; 0=no damage to plant).

Assay [1] concerns Ipomoea hederacea (IPOHE). The settings on record: Application Rate 500 g/Ha, evaluated after 13 days; for pest or weed control at 500 g/ha: Ipomoea hederacea, post-emergence, 312 h, read-out: Control of IPOHE after post-emergence application (100=total damage to plant; 0=no damage to plant). The method, then:
as §1, §2

The subject of the next assay is Eleusine indica (ELEIN). The settings on record: Application Rate 500 g/Ha, evaluated after 13 days; for pest or weed control at 500 g/ha: Eleusine indica, post-emergence, 312 h, read-out: Control of ELEIN after post-emergence application (100=total damage to plant; 0=no damage to plant). The method, then: as §1, §2
The subject of assay [2] is Chenopodium album (CHEAL). Conditions: Application Rate 500 g/Ha, evaluated after 13 days; for pest or weed control at 500 g/ha: Chenopodium album, post-emergence, 312 h, read-out: Control of CHEAL after post-emergence application (100=total damage to plant; 0=no damage to plant). The method, then:
as §1, §2

Assay [3] has as its system Echinochloa crus-galli (ECHCG). The settings on record: Application Rate 500 g/Ha, evaluated after 13 days; for pest or weed control at 500 g/ha: Echinochloa crus-galli, post-emergence, 312 h, read-out: Control of ECHCG after post-emergence application (100=total damage to plant; 0=no damage to plant). The method, then: as §1, §2
Another assay concerns Setaria faberi (SETFA). The settings on record: Application Rate 500 g/Ha, evaluated after 13 days; for pest or weed control at 500 g/ha: Setaria faberi, post-emergence, 312 h, read-out: Control of SETFA after post-emergence application (100=total damage to plant; 0=no damage to plant). The method, then: as §1, §2
Assay [4] has as its system Digitaria sanguinalis (DIGSA). The settings on record: Application Rate 500 g/Ha, evaluated after 13 days; for pest or weed control at 500 g/ha: Digitaria sanguinalis, post-emergence, 312 h, read-out: Control of DIGSA after post-emergence application (100=total damage to plant; 0=no damage to plant). The protocol:
as §1, §2

Assay [5] concerns Euphorbia heterophylla (EPHHL). The settings on record: Application Rate 500 g/Ha, evaluated after 13 days; for pest or weed control at 500 g/ha: Euphorbia heterophylla, post-emergence, 312 h, read-out: Control of EPHHL after post-emergence application (100=total damage to plant; 0=no damage to plant). The method, then: as §1, §2
Assay [6] concerns Amaranthus palmeri (AMAPA). Conditions: Application Rate 500 g/Ha, evaluated after 13 days; for pest or weed control at 500 g/ha: Amaranthus palmeri, post-emergence, 312 h, read-out: Control of AMAPA after post-emergence application (100=total damage to plant; 0=no damage to plant). The protocol:
as §1, §2

Take `O=S(=O)(O)CC[n+]1ccc(-c2cnccn2)cn1` [Compound 1.004]: the pest or weed control at 500 g/ha came out at 60% in the assay on Lolium perenne (LOLPE); 60% in assay [1]; 100% in the assay with Eleusine indica (ELEIN); 100% in assay [2]; 80% in [3]; 90% with Setaria faberi (SETFA). In addition, the pest or weed control at 500 g/ha in assay [4], in assay [5] and in [6] was 100% in each case.
Turning to `O=C(O)CC[n+]1ccc(-c2cnccn2)cn1.O=C([O-])C(F)(F)F` [Compound 1.005, 3-(4-pyrazin-2-ylpyridazin-1-ium-1-yl)propanoic acid 2,2,2-trifluoroacetate], the “Control of LOLPE after post-emergence application (100=total damage to plant; 0=no damage to plant)” value in the assay with Lolium perenne (LOLPE) is recorded as 80. Also, the pest or weed control at 500 g/ha in assay [1] was found to be 30%; in the assay on Eleusine indica (ELEIN), 100%; in assay [2], 100%; in [3] it was 100%; in assay [4], 100%; in assay [6], 100%. In the assay on Setaria faberi (SETFA), the “Control of SETFA after post-emergence application (100=total damage to plant; 0=no damage to plant)” value is listed as 60. Moreover, the “Control of EPHHL after post-emergence application (100=total damage to plant; 0=no damage to plant)” value in [5] was 70.
For `O=S(=O)([O-])CC[n+]1ccc(-c2ccnnc2)cn1` [Compound 1.006, 2-(4-pyridazin-4-ylpyridazin-1-ium-1-yl)ethanesulfonate], the pest or weed control at 500 g/ha with Lolium perenne (LOLPE) is 80%; in [1], 100%; with Eleusine indica (ELEIN) it was 100%; in assay [2] it was 100%; in assay [3], 60%; in the assay with Setaria faberi (SETFA), 30%. Further, the values for the pest or weed control at 500 g/ha in assay [4], in assay [5] and in assay [6] were 80%, 100% and 100%, respectively.
In the case of `O=S(=O)([O-])CC[n+]1ccc(-c2ccncc2)cn1` [Compound 1.007], the pest or weed control at 500 g/ha in the assay on Lolium perenne (LOLPE) amounted to 90%; in assay [1], 30%; in the assay with Eleusine indica (ELEIN), 100%; in assay [2], 100%; in [3], 80%; in the assay with Setaria faberi (SETFA), 70%. In addition, the pest or weed control at 500 g/ha was 100% in assay [4], 40% in assay [5] and 100% in assay [6].
As to `O=C(O)CC[n+]1ccc(-c2ccncn2)cn1` [Compound 1.011], the pest or weed control at 500 g/ha is 70% with Lolium perenne (LOLPE); 100% in assay [1]; 100% with Eleusine indica (ELEIN); 100% in [2]; 90% in assay [3]; 100% in the assay on Setaria faberi (SETFA). In addition, the pest or weed control at 500 g/ha was found to be 90% in [4], 100% in [5] and 100% in assay [6].
With `O=C(O)CC[n+]1ccc(-c2cnccn2)cn1.[Cl-]` [Compound 1.012, 3-(4-pyrazin-2-ylpyridazin-1-ium-1-yl)propanoic acid chloride], the “Control of LOLPE after post-emergence application (100=total damage to plant; 0=no damage to plant)” value in the assay on Lolium perenne (LOLPE) came out at 50. Moreover, the “Control of IPOHE after post-emergence application (100=total damage to plant; 0=no damage to plant)” value in assay [1] amounted to 20. In addition, in the assay on Eleusine indica (ELEIN), the “Control of ELEIN after post-emergence application (100=total damage to plant; 0=no damage to plant)” value turned out to be 90. For the same molecule, in [2], the “Control of CHEAL after post-emergence application (100=total damage to plant; 0=no damage to plant)” value came to 100. For the same molecule, the “Control of ECHCG after post-emergence application (100=total damage to plant; 0=no damage to plant)” value in assay [3] came out at 90. In addition, the “Control of SETFA after post-emergence application (100=total damage to plant; 0=no damage to plant)” value in the assay on Setaria faberi (SETFA) is 90. The “Control of DIGSA after post-emergence application (100=total damage to plant; 0=no damage to plant)” value in [4] is given as 100. Besides, in [5], the “Control of EPHHL after post-emergence application (100=total damage to plant; 0=no damage to plant)” value amounted to 100. Further, the “Control of AMAPA after post-emergence application (100=total damage to plant; 0=no damage to plant)” value in assay [6] is reported as 100.
For `COC(=O)CC[n+]1ccc(-c2cnccn2)cn1` [Compound 1.013, methyl 3-(4-pyrazin-2-ylpyridazin-1-ium-1-yl)propanoate chloride], the pest or weed control at 500 g/ha with Lolium perenne (LOLPE) was 70%; in assay [1], 80%; in the assay with Eleusine indica (ELEIN), 100%; in assay [2], 90%; in assay [3], 80%; in the assay with Setaria faberi (SETFA), 100%. For the same molecule, the pest or weed control at 500 g/ha in assay [4], in assay [5] and in [6] was 100% in each case.
Regarding `O=C(CC[n+]1ccc(-c2ncccn2)cn1)OCc1ccccc1` [Compound 1.018], the pest or weed control at 500 g/ha with Lolium perenne (LOLPE) worked out at 40%; in assay [1] it was 30%; in the assay on Eleusine indica (ELEIN), 100%; in assay [2] it was 90%; in assay [3] it was 80%; in the assay on Setaria faberi (SETFA) it was 100%. Besides, the figures for the pest or weed control at 500 g/ha in [4], in assay [5] and in assay [6] were 100%, 100% and 90%, respectively.
`O=C(CC[n+]1ccc(-c2ncccn2)cn1)Oc1ccccc1` [Compound 1.020]: the pest or weed control at 500 g/ha was determined as 80% in the assay on Lolium perenne (LOLPE); 30% in assay [1]; 100% in the assay on Eleusine indica (ELEIN); 80% in assay [2]; 90% in assay [3]; 100% in the assay on Setaria faberi (SETFA). In addition, the pest or weed control at 500 g/ha stood at 100% in assay [4], 80% in assay [5] and 100% in assay [6].
In the case of `O=C(O)CC[n+]1ccc(-c2ncccn2)cn1.[Br-]` [Compound 1.021, 3-(4-pyrimidin-2-ylpyridazin-1-ium-1-yl)propanoic acid bromide], the pest or weed control at 500 g/ha in the assay with Lolium perenne (LOLPE) amounted to 70%; in [6], 100%. In [1], the “Control of IPOHE after post-emergence application (100=total damage to plant; 0=no damage to plant)” value is 100. Besides, the “Control of ELEIN after post-emergence application (100=total damage to plant; 0=no damage to plant)” value in the assay with Eleusine indica (ELEIN) is given as 100. Also, the “Control of CHEAL after post-emergence application (100=total damage to plant; 0=no damage to plant)” value in [2] was 100. The “Control of ECHCG after post-emergence application (100=total damage to plant; 0=no damage to plant)” value in [3] came out at 100. Besides, the “Control of SETFA after post-emergence application (100=total damage to plant; 0=no damage to plant)” value with Setaria faberi (SETFA) is 100. Also, in assay [4], the “Control of DIGSA after post-emergence application (100=total damage to plant; 0=no damage to plant)” value was determined as 100. Also, the “Control of EPHHL after post-emergence application (100=total damage to plant; 0=no damage to plant)” value in assay [5] is 100.
`CC(C)(C[n+]1ccc(-c2ncccn2)cn1)C(=O)O` [Compound 1.022]: the pest or weed control at 500 g/ha in the assay with Lolium perenne (LOLPE) worked out at 60%; in [1] it was 100%; in the assay with Eleusine indica (ELEIN), 100%; in assay [2], 80%; in assay [3], 90%; with Setaria faberi (SETFA), 100%. In addition, the pest or weed control at 500 g/ha in [4], in assay [5] and in assay [6] was 100% throughout.
As to `CC(C[n+]1ccc(-c2ncccn2)cn1)C(=O)O` (stereo not drawn) [Compound 1.024], the pest or weed control at 500 g/ha in the assay on Lolium perenne (LOLPE) turned out to be 80%; in assay [1] it was 40%; in the assay on Eleusine indica (ELEIN), 100%; in assay [2], 90%; in [3] it was 100%; in the assay on Setaria faberi (SETFA) it was 100%. Besides, the values for the pest or weed control at 500 g/ha in assay [4], in assay [5] and in [6] were 90%, 100% and 100%, respectively.

Source of the values: patent US20220095618A1, “HERBICIDAL COMPOSITIONS” (SYNGENTA CROP PROTECTION AG, priority 2019, published 2022).
